In patent publication US20260070887A1 (Shenzhen Zhongge Biological Technology Co., Ltd., priority 2022, published 2026) one finds AUC, Cmax and IC50 data, which are given here for one compound.

A short description of data set [1]: PK study in ICR mice. The format is in vivo, mouse. As to conditions: both sexes, mouse, plasma, route and dose not given. The method in brief:
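Fasted ICR mice (3/group) dosed intravenously or by oral gavage; plasma sampled up to 24 h. Plasma levels measured by LC-MS/MS after protein precipitation. T½, AUC0-t, CL, Vss and F derived by noncompartmental analysis.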

The target of data set [2] is hERG channel (Homo sapiens (Human), UniProt Q12809). As to the kind of experiment: hERG manual patch clamp test. It is filed as cell-based. Here is the method: The cells used in this test were the HEK293 cell line transfected with hERG cDNA and stably expressing the hERG channel (#60187, supplied by BPS, passages P3-P23 for experimental studies). The cells were cultured in a medium containing the following components: MEM medium containing 10% (v/v) inactivated fetal calf serum, 1 mM sodium pyruvate, 500 μg/ml geneticin, 0.1 mM non-essential amino acids, and 100 U/m1 penicillin/streptomycin. HEK293 hERG cells were grown in a culture dish containing the above-mentioned medium, cultured in a 37° C., 5% CO2 incubator, and passaged approximately three times per week, with the cell fusion rate between 40% and 80%. 24 to 48 hours prior to electrophysiological experiments, HEK293 hERG cells were transferred to 0.05 mg/ml PDL-pretreated slides, seeded at a density of 1×10^4 cells per well in a 48-well plate, and grown in the same medium and under the same culture conditions. The density of HEK293 hERG cells on each circular slide needs to reach the requirement that most cells are independent and individual. The extracellular fluid components used in the hERG assay were as follows (mM): 145 NaCl, 4 KCl, 2 CaCl2, 1 MgCl2, 10 glucose, and 10 HEPES (pH adjusted to 7.40 with NaOH). The intracellular fluid components were as follows (mM): 130 KCl, 2 MgCl2, 5 EGTA, 10 HEPES and 5 Na2ATP (pH adjusted to 7.25 with KOH). […] Prior to the experiment, the compound was first serially diluted with DMSO to prepare stock solutions at 10, 3, 1, 0.3, and 0.1 mM, which were then further diluted with extracellular fluid to achieve the final test concentrations (in μM). The final concentration of DMSO in compound solutions at various concentrations was between 0.1% and 0.3%. All compound solutions are routinely sonicated for 5 to 10 min and shaken sufficiently to ensure complete dissolution of the compound, and all test solutions are mixed well by rotation for at least 10 min.
Electrophysiological tests were performed using a manual patch clamp system (HEKA EPC-10 signal amplifier and digital conversion system, HEKA Electronics, Germany) for the recording of whole cell currents. The specific test method was described as follows: Circular slides with […] hERG cells growing on the surface were placed in an electrophysiological recording chamber under an inverted microscope. The recording chamber was continuously perfused with extracellular fluid (at approximately 1 mL/min). The conventional whole-cell patch-clamp technique was employed for current recordings throughout the experiment. If not specified, the experiments were carried out at normal room temperature (about 25° C.). The cells were clamped at −80 mV. The cell clamp voltage was depolarized to +30 mV to activate the hERG potassium channel, and then clamped to −50 mV after 5 seconds to eliminate inactivation and produce a tail current. The peak tail current value was used as a value for the magnitude of the hERG current. The potassium current of hERG recorded in the above steps was stabilized by continuous extracellular fluid perfusion in the recording chamber, and the drug to be tested was continuously perfused until the inhibitory effect of the drug on hERG currents had stabilized. The coincidence of the most recent three consecutive current recording traces was typically taken as the criteria for determining whether steady-state conditions were achieved.
Dose-response curves of the test compounds were plotted with % hERG inhibition rate as the y-axis and test compound concentration as the x-axis, to calculate the IC50 values.

Data set [3] relates to OVCAR-3 cells. As to the kind of experiment: OVCAR-3 cell proliferation (Cell Titer-Glo, 10 days). The format is cell-based, human. As to conditions: Homo sapiens, OVCAR-3, 240 h. The method in brief: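 400 cells per well were seeded onto pre-dispensed compound (final 0.12 nM to 10 μM) in RPMI-1640 with 20% FBS and insulin, then co-cultured for 10 days. Viability was read as Cell Titer-Glo luminescence, inhibition was taken against 0.1% DMSO control, and IC50 came from nonlinear concentration-inhibition regression.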
A general note: In ATP-based viability assays light output follows the ATP content of the culture.

Sequence of hERG channel (Q12809 whole entry, the tested form may be a part): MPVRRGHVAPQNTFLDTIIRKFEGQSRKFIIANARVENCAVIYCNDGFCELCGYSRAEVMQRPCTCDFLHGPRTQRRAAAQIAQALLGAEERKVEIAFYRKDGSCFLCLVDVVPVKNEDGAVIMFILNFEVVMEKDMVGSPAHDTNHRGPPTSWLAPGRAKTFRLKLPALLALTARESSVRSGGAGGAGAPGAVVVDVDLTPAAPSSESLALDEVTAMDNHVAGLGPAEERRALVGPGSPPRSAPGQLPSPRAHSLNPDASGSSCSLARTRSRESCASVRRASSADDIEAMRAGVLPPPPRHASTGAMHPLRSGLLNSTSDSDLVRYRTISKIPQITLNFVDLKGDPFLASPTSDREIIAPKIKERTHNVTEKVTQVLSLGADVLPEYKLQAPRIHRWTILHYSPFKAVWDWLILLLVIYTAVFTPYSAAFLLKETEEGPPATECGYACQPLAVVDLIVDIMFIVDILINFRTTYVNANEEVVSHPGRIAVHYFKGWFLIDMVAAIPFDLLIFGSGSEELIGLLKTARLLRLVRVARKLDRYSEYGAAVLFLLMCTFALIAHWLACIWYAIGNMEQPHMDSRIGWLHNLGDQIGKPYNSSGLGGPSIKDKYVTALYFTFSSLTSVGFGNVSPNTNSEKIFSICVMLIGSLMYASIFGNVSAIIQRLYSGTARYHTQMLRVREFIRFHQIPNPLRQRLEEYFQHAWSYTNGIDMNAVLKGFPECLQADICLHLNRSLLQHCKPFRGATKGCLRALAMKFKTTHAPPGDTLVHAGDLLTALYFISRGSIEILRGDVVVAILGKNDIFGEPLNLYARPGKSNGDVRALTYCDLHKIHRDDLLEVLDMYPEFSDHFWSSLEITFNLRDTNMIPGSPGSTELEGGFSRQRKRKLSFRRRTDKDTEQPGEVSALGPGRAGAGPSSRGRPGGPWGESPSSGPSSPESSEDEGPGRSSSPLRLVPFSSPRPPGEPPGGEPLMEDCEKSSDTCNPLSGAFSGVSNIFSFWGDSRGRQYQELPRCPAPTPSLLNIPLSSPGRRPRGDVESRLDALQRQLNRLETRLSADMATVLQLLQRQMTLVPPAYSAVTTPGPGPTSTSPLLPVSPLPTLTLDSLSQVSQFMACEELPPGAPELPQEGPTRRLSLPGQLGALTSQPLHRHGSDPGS

Turning to `COc1ccc(NC(=O)c2ccc(NS(=O)(=O)CCO)cc2N2CCC3(CC2)CC3)c2cc3n(c12)CCC(F)(F)C3` [Example 478, N-(8,8-difluoro-4-methoxy-6,7,8,9-tetrahydropyridino[1,2-a]indol-1-yl)-4-(2-hydroxyethylsulfonamido)-2-(6-azaspiro[2.5]octan-6-yl)benzamide], the exposure (AUC) in data set [1] (read-out: AUC) stood at 48500 ng·h/mL. The Cmax in data set [1] (read-out: Cmax) came out at 6020 ng/mL. In addition, the IC50 was 8 µM in data set [2] and ≤ 0.05 µM in data set [3].

By AUC is commonly meant concentration integrated over time. One may read the Cmax as the peak of the concentration-time curve. What is called IC50 is the concentration needed to halve the response being measured. Lower therefore signals higher potency.
